Results reported in patent US20140296263A1, “SUBSTITUTED XANTHINE DERIVATIVES” (CONCERT PHARMACEUTICALS, INC., priority 2011, published 2014).

What was measured:
[1] = tested on: IFN-gamma; assay: IFN-gamma assay (blood donors); format: cell-based, human; details: for IC50: Homo sapiens
[2] = tested on: TNF-α; assay: TNF-α inhibition assay in LPS-stimulated whole blood; format: cell-based, human; details: LPS-induced TNF-α in whole blood, potency relative to compound 401, FIG. 1
Procedure: Whole blood (sodium heparin vacutainer) was obtained from two normal, healthy donors from Research Blood Components, Boston, Mass. For each donor sample, two duplicate assays were performed according to the following procedure. Blood was diluted 1:1 with Opti-MEM® Reduced Serum Medium (Invitrogen) and 100 μl of diluted blood was added to wells of a 96-well plate. The test compounds were serially diluted in Opti-MEM® to create a dose-response. The resulting diluted solutions (50 μl) were then added to the wells containing diluted blood and the mixture was incubated for 15 minutes at 37° C., 5% CO2. Lipopolysaccharide (LPS) strain 113:H10 (obtained from Associates of Cape Cod #E0005) was prepared at a 4× concentration and 50 μl of 4 ng/ml solution was added to the blood to achieve a final concentration of 1 ng/ml. Control wells contained diluted blood and 100 μl Opti-MEM® (negative control) or 50 μl Opti-MEM® plus 50 μl LPS (positive control). Plates were then incubated for 24 h at 37° C., 5% CO2. After incubation, diluted plasma was harvested by centrifugation at 3000 RPM for 2 minutes to pellet the blood cells. Supernatant (diluted plasma) was then transferred into a clean 96-well plate. The diluted plasma was further diluted 1:10 with ELISA reagent diluents and the TNF-α level for each compound was measured following manufacturer's instructions for the DuoSet® ELISAs (R & D Systems). The IC50 value for the compound was calculated using commercially available statistics software and the average IC50 values from the two donors was calculated. The potency of the compound relative to the potency of compound 401 was obtained by dividing the IC50 value of compound 401 by the IC50 value of the compound.

[3] = tested on: reactive oxygen species (ROS); assay: ROS inhibition assay in whole blood (neutrophils, DHR-123 flow cytometry); format: cell-based, human; details: fMLP or PMA stimulated whole blood, potency relative to compound 401, FIG. 1
Procedure: Whole blood (sodium heparin vacutainer) was obtained from two normal, healthy donors from Research Blood Components, Boston, Mass. For each donor sample, two duplicate assays were performed according to the following procedure. Whole blood (100 μl) was added to wells of a 96 deep-well plate. Compounds were serially diluted in Hanks Balanced Salt Solution (HBSS) to achieve a desired dose-response. The resulting diluted solutions (100 μl) were added to the whole blood samples, mixed gently, and incubated for 30 minutes at 37° C., 5% CO2. The blood was then stimulated by addition of Formyl-Methionyl-Leucyl-Phenylalanine (fMLP) (1 μM final concentration) or phorbol myristate acetate (PMA) (10 ng/ml final concentration) and was further incubated for 20 minutes at 37° C., 5% CO2. Dihydrorhodamine 123 (DHR-123) reagent (Invitrogen), a cell-permeable probe that becomes highly fluorescent when oxidized, was then added to the blood at a final concentration of 0.5 μM and incubated for another 20 minutes at 37° C., 5% CO2. The red blood cells were then lysed in 1 ml ammonium chloride-potassium (ACK) lysis buffer (Invitrogen) for 10 minutes at room temperature. The remaining leukocytes (including the neutrophils) were washed once in HBSS and resuspended in HBSS/0.5% paraformaldehyde. To quantify intracellular ROS production, the fluorescence of the oxidized form of DHR-123, which is a fluorescent compound, was measured. The level of oxidized DHR-123 in neutrophils was assessed for each sample by measuring cell fluorescence on a flow cytometer. The IC50 value was calculated using commercially available statistics software and the average IC50 values from the two donors was calculated. The potency of the compound relative to the potency of compound 401 was obtained by dividing the IC50 value of compound 401 by the IC50 value of the compound.

[4] = tested on: MCP-1; assay: MCP-1 assay (blood donors); format: cell-based, human; details: for IC50: Homo sapiens
Description: MCP-1 is a known pro-inflammatory cytokine that plays important roles in various diseases.

[5] = pentoxifylline and its metabolites; cited from earlier work

| SMILES | IC50 ([1]; Donor I) [µM] | IC50 ([1]; Donor II) [µM] | IFN-gamma IC50 values compared with Compounds 400 and 401 ([1]; one donor) | IFN-gamma IC50 values compared with Compounds 400 and 401 ([1]; second donor) | activity (relative potency) in the TNF-α inhibition assay [2] | activity (relative potency) in the TNF-α inhibition assay ([2]; listed as M-2) | activity (relative potency) in the ROS inhibition assay [3] | activity (relative potency) in the ROS inhibition assay ([3]; listed as M-2) | IC50 ([4]; Donor 1) [µM] | IC50 ([4]; Donor 2) [µM] | MCP-1 IC50 values compared with Compounds 400 and 401 ([4]; both donors of Table 2) | time to peak plasma levels [5] |
| --- | --- | --- | --- | --- | --- | --- | --- | --- | --- | --- | --- | --- |
| Cn1cnc2c1c(=O)n(CCCCC(O)CO)c(=O)n2C (stereo not drawn) [Compound 308, 1-(5,6-Dihydroxyhexyl)-3,7-dimethyl-1H-purine-2,6(3H,7H)-dione] | 72 | 119 | slightly higher | very similar | comparable activity | active | comparable activity | active | 194 | 125 | slightly higher |  |
| CC(=O)CCCCn1c(=O)c2c(ncn2C)n(C)c1=O [Compound 400, 1-(5-oxohexyl)-3,7-dimethylxanthine] | 78 | 63 |  |  | comparable activity |  | comparable activity |  | 80 | 80 |  | within one hour |
| Cn1cnc2c1c(=O)n(CCCC(=O)O)c(=O)n2C [Compound M-5] |  |  |  |  | significantly lower activity |  | significantly lower activity |  |  |  |  |  |
| Cn1cnc2c1c(=O)n(CCCCC(=O)O)c(=O)n2C [Compound M-4] |  |  |  |  | significantly lower activity |  | significantly lower activity |  |  |  |  |  |
| CC(O)C(O)CCCn1c(=O)c2c(ncn2C)n(C)c1=O (stereo not drawn) [Compound M-3] |  |  |  |  | significantly lower activity |  | significantly lower activity |  |  |  |  |  |
